According to US9302991B2, “Arylamide derivatives as TTX-S blockers” (RaQualia Pharma Inc., priority 2010, dated 2016):

Target: T1, human Nav1.7 channels (Homo sapiens, UniProt Q15858)
T1 construct: expressed in transfected cells; host or cells: CHO
Assay: FRET assay, human Nav1.7 (EFS on FDSS)
Type: cell-based
Conditions: CHO cells expressing human Nav1.7, read-out: IC50 against Nav1.7
Protocol: The inhibitory activities of compounds against voltage gated sodium channels are determined by methodology well known in the art.
The ability of the aryl substituted carboxamide derivatives of the formula (I) to inhibit the NaV1.3, Nav1.7 and Nav1.5 channels is measured by Fluorescence Resonance Energy Transfer (FRET) assay and electrophysiology assay described below.
This screen is used to determine the effects of compounds on human Nav1.3, human Nav1.7, and human Nav1.5 channels, utilising electrical field stimulation (EFS) system in 96-well plate format on FDSS (Hamamatsu Photonics) platform. The change of membrane potential is monitored with FRET dye pair, oxonol (DiSBAC2(3)) and coumarin (CC2-DMPE).
CHO cells expressing human Nav1.7 channels are grown in T225 flasks, in a 5% CO2 humidified incubator to about 80% confluence. Media composition consists of HAM/F12 with Glutamax 1.10% FCS, 100 units/mL Penicillin and 100 microgram/mL Hygromycin.
Protocol: • Seed each cell lines (1×10^5 cells/well) into poly-D-lysine coated 96-well plates prior to experimentation. • Incubate at 37° C. in 5% CO2 for 24 hours. • Wash each well with assay buffer (140 mM NaCl, 4.5 mM KCl, 10 mM D-Glucose, 2 mM CaCl2, 1 mM MgCl2, 10 mM HEPES, pH 7.4 adjusted with NaOH) twice. • Add 1st loading solution containing 10 microM CC2-DMPE and 0.06% Pluronic F-127 in assay buffer. • Incubate the plate at room temperature in dark for 1 hour. • Remove 1st loading solution and added 2nd loading solution containing 15 microM DiSBAC2(3), 0.555 mM VABSC-1 and 0.004% Pluronic F-127 in assay buffer. • Place the plate under the dark at room temperature for 25 minutes. • Add compound solutions into the assay plate. • Set the assay plate in FDSS and placed an EFS device on the plate. • Measure EFS-induced fluorescent response by FDSS.
The data are analyzed and reported as normalized ratios of intensities measured at […]. The process of calculating these ratios is performed as follows:
This analysis is performed using a computerized specific program designed for FDSS generated data. Fluorescence ratio values are plotted using XLfit to determine an IC50 value for each compound.

T1 sequence (Q15858 whole entry): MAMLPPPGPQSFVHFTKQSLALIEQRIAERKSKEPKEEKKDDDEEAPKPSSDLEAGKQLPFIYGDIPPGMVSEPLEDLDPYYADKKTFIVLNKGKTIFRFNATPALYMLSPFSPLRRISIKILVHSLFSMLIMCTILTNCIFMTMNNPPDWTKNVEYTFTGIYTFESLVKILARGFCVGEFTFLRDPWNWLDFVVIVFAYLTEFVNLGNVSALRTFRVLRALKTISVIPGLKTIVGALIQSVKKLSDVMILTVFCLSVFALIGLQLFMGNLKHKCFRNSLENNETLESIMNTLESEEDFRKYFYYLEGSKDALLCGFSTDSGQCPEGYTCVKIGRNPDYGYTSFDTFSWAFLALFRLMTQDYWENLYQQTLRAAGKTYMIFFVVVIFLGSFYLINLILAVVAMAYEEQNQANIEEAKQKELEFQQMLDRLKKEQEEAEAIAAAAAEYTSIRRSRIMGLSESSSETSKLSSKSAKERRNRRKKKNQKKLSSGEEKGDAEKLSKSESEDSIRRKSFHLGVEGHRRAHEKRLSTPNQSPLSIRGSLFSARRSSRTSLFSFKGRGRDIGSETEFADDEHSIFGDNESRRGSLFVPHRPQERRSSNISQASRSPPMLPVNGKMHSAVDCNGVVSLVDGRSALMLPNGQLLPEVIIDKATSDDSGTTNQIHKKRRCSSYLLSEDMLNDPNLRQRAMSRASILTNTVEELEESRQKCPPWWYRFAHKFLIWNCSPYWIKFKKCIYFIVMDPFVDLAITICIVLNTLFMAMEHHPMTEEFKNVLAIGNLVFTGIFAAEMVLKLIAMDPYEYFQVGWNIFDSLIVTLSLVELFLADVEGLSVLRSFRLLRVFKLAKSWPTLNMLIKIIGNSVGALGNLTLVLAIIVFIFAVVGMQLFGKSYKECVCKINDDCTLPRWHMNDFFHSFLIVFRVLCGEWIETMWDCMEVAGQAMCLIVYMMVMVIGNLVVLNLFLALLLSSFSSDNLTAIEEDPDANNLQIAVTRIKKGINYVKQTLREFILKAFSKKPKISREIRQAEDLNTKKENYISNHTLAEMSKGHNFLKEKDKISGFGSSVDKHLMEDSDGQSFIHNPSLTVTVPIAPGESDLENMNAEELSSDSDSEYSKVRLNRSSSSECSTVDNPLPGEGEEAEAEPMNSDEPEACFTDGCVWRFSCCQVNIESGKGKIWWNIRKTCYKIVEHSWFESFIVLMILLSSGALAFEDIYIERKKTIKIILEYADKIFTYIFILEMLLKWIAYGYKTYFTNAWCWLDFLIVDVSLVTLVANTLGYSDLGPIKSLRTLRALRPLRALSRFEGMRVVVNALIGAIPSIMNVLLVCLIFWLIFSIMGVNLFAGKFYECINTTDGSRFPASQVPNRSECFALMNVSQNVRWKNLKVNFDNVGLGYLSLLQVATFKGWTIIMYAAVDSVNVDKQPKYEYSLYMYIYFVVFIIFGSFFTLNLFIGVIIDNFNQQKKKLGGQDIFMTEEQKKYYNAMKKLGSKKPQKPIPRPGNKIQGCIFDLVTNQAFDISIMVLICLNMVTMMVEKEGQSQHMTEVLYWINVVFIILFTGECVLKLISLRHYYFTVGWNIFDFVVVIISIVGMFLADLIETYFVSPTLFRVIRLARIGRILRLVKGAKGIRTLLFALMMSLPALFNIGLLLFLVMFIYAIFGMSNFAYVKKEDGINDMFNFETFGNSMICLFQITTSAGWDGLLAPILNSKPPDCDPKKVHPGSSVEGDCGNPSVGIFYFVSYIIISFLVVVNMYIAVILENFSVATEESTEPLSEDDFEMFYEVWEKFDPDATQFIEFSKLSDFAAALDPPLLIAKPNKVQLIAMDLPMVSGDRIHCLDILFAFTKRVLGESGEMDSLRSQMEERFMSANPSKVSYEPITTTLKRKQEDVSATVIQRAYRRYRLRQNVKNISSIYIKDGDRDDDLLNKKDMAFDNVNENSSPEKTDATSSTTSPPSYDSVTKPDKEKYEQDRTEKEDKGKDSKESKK

SMILES	IC50 [µM]
CC(C)C(=O)Nc1cc(C(=O)NCc2ccc(O[C@H](C)C(F)(F)F)nc2)ccn1 (single isomer, unassigned) [Example 319]	< 1
COc1nc(OCC(F)(F)F)ccc1CN(C)C(=O)c1cc(C)nc(NC(C)=O)c1 [Example 290, 2-acetamido-N-((2-methoxy-6-(2,2,2-trifluoroethoxy)pyridin-3-yl)methyl)-N,6-dimethylisonicotinamide]	< 1
CC(=O)Nc1cc(C(=O)NCc2cccc(OCC(F)(F)F)n2)ccn1 [Example 22, 2-acetamido-N-((6-(2,2,2-trifluoroethoxy)pyridin-2-yl)methyl)isonicotinamide]	< 1
CCC(=O)Nc1cc(C(=O)NC(C)c2ccc(OCC(F)(F)F)nc2)cc(C)n1 (single isomer, unassigned) [Example 60, 2-methyl-6-propionamido-N-(1-(6-(2,2,2-trifluoroethoxy)pyridin-3-yl)ethyl)isonicotinamide]	< 1
CCC(=O)Nc1cc(C(=O)NCc2ccc(O[C@H](C)C(F)(F)F)nc2)ccn1 (single isomer, unassigned) [Example 316]	< 1
CCC(=O)Nc1cc(C(=O)NC(C)c2ccc(OCCC(F)(F)F)nc2)ccn1 (single isomer, unassigned) [Example 115, 2-propionamido-N-(1-(6-(3,3,3-trifluoropropoxy)pyridin-3-yl)ethyl)isonicotinamide]	< 1
CC(NC(=O)c1ccnc(NC(=O)C2CC2)c1)c1ccc(OCCC(F)(F)F)nc1 (single isomer, unassigned) [Example 116, 2-(cyclopropanecarboxamido)-N-(1-(6-(3,3,3-trifluoropropoxy)pyridin-3-yl)ethyl)isonicotinamide]	< 1
CC(=O)Nc1cc(C(=O)NCc2ccc(OCC(F)(F)F)nc2N2CCOCC2)ccn1 [Example 281, 2-acetamido-N-((2-morpholino-6-(2,2,2-trifluoroethoxy)pyridin-3-yl)methyl)isonicotinamide]	< 1
Cc1nc(OCC(F)(F)F)c(F)cc1CNC(=O)c1ccnc(NC(=O)C(C)C)c1 [Example 314, N-((5-fluoro-2-methyl-6-(2,2,2-trifluoroethoxy)pyridin-3-yl)methyl)-2-isobutyramidoisonicotinamide]	< 1
COc1cc(C(C)NC(=O)c2ccnc(NC(=O)C3CC3)c2)cnc1OCC(F)(F)F (single isomer, unassigned) [Example 143, 2-(cyclopropanecarboxamido)-N-(1-(5-methoxy-6-(2,2,2-trifluoroethoxy)pyridin-3-yl)ethyl)isonicotinamide]	< 1
COc1cc(C(C)NC(=O)c2cc(C)nc(NC(C)=O)c2)cnc1OCC(F)(F)F (single isomer, unassigned) [Example 330, 2-acetamido-N-(1-(5-methoxy-6-(2,2,2-trifluoroethoxy)pyridin-3-yl)ethyl)-6-methylisonicotinamide]	< 1
CCC(=O)Nc1cc(C(=O)NCc2ccc(OCC(F)(F)F)nc2N2CCCCC2)cc(C)n1 [Example 306, 2-methyl-N-((2-(piperidin-1-yl)-6-(2,2,2-trifluoroethoxy)pyridin-3-yl)methyl)-6-propionamidoisonicotinamide]	< 1
CC(=O)Nc1cc(C(=O)NCc2ccc(OCC(F)(F)F)nc2N2CCCCC2)ccn1 [Example 302, 2-acetamido-N-((2-(piperidin-1-yl)-6-(2,2,2-trifluoroethoxy)pyridin-3-yl)methyl)isonicotinamide]	< 1

Further lines, results first:

IC50 [µM]	SMILES
< 1	CCc1cc(CNC(=O)c2ccnc(NC(=O)C(C)C)c2)cnc1OCC(F)F [Example 910, N-((6-(2,2-difluoroethoxy)-5-ethylpyridin-3-yl)methyl)-2-isobutyramidoisonicotinamide]
< 1	Cc1cc(C(=O)NCc2ccc(OCC(F)(F)C(F)(F)F)nc2)cc(NC(=O)C2CC2)n1 [Example 827, 2-(cyclopropanecarboxamido)-6-methyl-N-((6-(2,2,3,3,3-pentafluoropropoxy)pyridin-3-yl)methyl)isonicotinamide]
< 1	Cc1cc(C(C)NC(=O)c2ccnc(NC(=O)C(C)C)c2)ccc1OCC(F)F (single isomer, unassigned) [Example 862, N-(1-(4-(2,2-difluoroethoxy)-3-methylphenyl)ethyl)-2-isobutyramidoisonicotinamide]
< 1	CCc1cc(C(C)NC(=O)c2ccnc(NC(=O)C3CC3)n2)cnc1OCC(F)F (single isomer, unassigned) [Example 890, 2-(cyclopropanecarboxamido)-N-(1-(6-(2,2-difluoroethoxy)-5-ethylpyridin-3-yl)ethyl)pyrimidine-4-carboxamide]
< 1	CC(C)C(=O)Nc1cc(C(=O)N[C@H](C)c2cccc(C(F)(F)F)c2)ccn1 (single isomer, unassigned) [Example 530]
< 1	CC(=O)Nc1cc(C(=O)N(C)C(C)c2cnc(OCC(F)(F)F)c(C)c2)cc(C)n1 (single isomer, unassigned) [Example 391, 2-acetamido-N,6-dimethyl-N-(1-(5-methyl-6-(2,2,2-trifluoroethoxy)pyridin-3-yl)ethyl)isonicotinamide]
< 1	O=C(NCc1cccc(C(F)(F)F)c1)c1ccnc(NC(=O)C2CC2)n1 [Example 404, 2-(cyclopropanecarboxamido)-N-(3-(trifluoromethyl)benzyl)pyrimidine-4-carboxamide]
< 1	Cc1cc(C(=O)NC(C)c2ccc(OCC(F)F)cc2C)cc(NC(=O)C(C)C)n1 (single isomer, unassigned) [Example 1104, N-(1-(4-(2,2-difluoroethoxy)-2-methylphenyl)ethyl)-2-isobutyramido-6-methylisonicotinamide]
< 1	Cc1cc(C(=O)N[C@H](C)c2cccc(C(F)(F)F)c2)cc(NC(=O)C2CC2)n1 (single isomer, unassigned) [Example 838]
< 1	CC(=O)Nc1cc(C(=O)NC(C)c2cnc(OCC(F)F)c(C)c2)ccn1 (single isomer, unassigned) [Example 551, 2-acetamido-N-(1-(6-(2,2-difluoroethoxy)-5-methylpyridin-3-yl)ethyl)isonicotinamide]
< 1	Cc1cc(C(=O)NCc2cnc(OCC(F)(F)F)c(Cl)c2)nc(NC(=O)C(C)C)n1 [Example 385, N-((5-chloro-6-(2,2,2-trifluoroethoxy)pyridin-3-yl)methyl)-2-isobutyramido-6-methylpyrimidine-4-carboxamide]
< 1	Cc1cc(C(C)NC(=O)c2ccnc(NC(=O)C(C)C)c2)cnc1OCC(F)(F)F (single isomer, unassigned) [Example 378, 2-isobutyramido-N-(1-(5-methyl-6-(2,2,2-trifluoroethoxy)pyridin-3-yl)ethyl)isonicotinamide]
< 1	CC(=O)Nc1cc(C(=O)N(C)C(C)c2cnc(OCC(F)(F)F)c(C)c2)ccn1 (single isomer, unassigned) [Example 392, 2-acetamido-N-methyl-N-(1-(5-methyl-6-(2,2,2-trifluoroethoxy)pyridin-3-yl)ethyl)isonicotinamide]
< 1	CC(C)C(=O)Nc1cc(C(=O)NC(C)c2ccc(OCC(F)(F)F)cc2Cl)ccn1 (single isomer, unassigned) [Example 799, N-(1-(2-chloro-4-(2,2,2-trifluoroethoxy)phenyl)ethyl)-2-isobutyramidoisonicotinamide]
< 1	CC(=O)Nc1cc(C(=O)NC(C)c2ccc(OCC(F)(F)F)c(Cl)c2)cc(C)n1 (single isomer, unassigned) [Example 676, 2-acetamido-N-(1-(3-chloro-4-(2,2,2-trifluoroethoxy)phenyl)ethyl)-6-methylisonicotinamide]
< 1	CC(=O)Nc1cc(C(=O)NC(C)c2ccc(OCC(F)F)c(Cl)c2)cc(C)n1 (single isomer, unassigned) [Example 1100, 2-acetamido-N-(1-(3-chloro-4-(2,2-difluoroethoxy)phenyl)ethyl)-6-methylisonicotinamide]
< 1	CCCC(=O)Nc1cc(C(=O)NCc2cnc(OCC(F)F)c(CC)c2)ccn1 [Example 933, 2-butyramido-N-((6-(2,2-difluoroethoxy)-5-ethylpyridin-3-yl)methyl)isonicotinamide]
< 1	Cc1cc(C(=O)NCc2cccc(C(F)(F)F)c2)cc(NC(=O)C2CC2)n1 [Example 852, 2-(cyclopropanecarboxamido)-6-methyl-N-(3-(trifluoromethyl)benzyl)isonicotinamide]
< 1	O=C(NCc1ccc(OCC(F)(F)F)nc1)c1ccnc(NC(=O)C2CC2)n1 [Example 397, 2-(cyclopropanecarboxamido)-N-((6-(2,2,2-trifluoroethoxy)pyridin-3-yl)methyl)pyrimidine-4-carboxamide]
